Reference: patent publication US8802664B2 (Bioproject, priority 2010, dated 2014)
Counter-ions that a name gives are not always drawn.

Target: T1, human H4 receptor (Homo sapiens, UniProt Q9H3N8)
T1 construct: expressed in transfected cells
Test: [3H]Histamine binding on membranes of CHO cells stably expressing human H4 receptor
Summary of the method: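 CHO-hH4 membranes 20 μg/well; buffer 50 mM Tris/HCl, 0.5 mM EDTA, pH 7.4; NSB: 10 μM JNJ 7777120 (BP1.2404); GF/B filtration (PEI-presoaked), 3 ice-cold washes; scintillation counting.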

T1 sequence (Q9H3N8 whole entry): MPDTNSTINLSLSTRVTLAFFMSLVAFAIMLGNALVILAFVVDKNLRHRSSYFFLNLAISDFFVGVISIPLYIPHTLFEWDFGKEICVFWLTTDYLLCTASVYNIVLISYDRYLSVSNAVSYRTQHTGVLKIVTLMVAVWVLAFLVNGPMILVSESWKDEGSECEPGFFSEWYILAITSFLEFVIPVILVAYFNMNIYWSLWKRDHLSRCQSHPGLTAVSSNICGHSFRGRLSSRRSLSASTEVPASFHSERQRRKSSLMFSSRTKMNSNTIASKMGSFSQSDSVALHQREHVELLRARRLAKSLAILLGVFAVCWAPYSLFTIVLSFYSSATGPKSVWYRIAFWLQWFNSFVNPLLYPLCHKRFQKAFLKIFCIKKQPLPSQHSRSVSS

| SMILES | Ki or IC50 activity class |
| --- | --- |
| CC(=O)COCC#Cc1cccc(C(OC2CCN(C)CC2)c2nc3ccccc3s2)c1 (stereo not shown) [Example 275, 1-(3-{3-[benzothiazol-2-yl(1-methylpiperidin-4-yloxy)methyl]phenyl}prop-2-ynyloxy)-propan-2-one] | < 0.3 µM |
| CC(=O)c1cccc(-c2cccc(C(OC3CCN(C)CC3)c3nc4ccccc4[nH]3)c2)c1 (stereo not shown) [Example 110, 1-{3′-[(1H-benzimidazol-2-yl)(1-methylpiperidin-4-yloxy)methyl]biphenyl-3-yl}ethanone] | < 0.3 µM |
| CN1CCC(OC(c2nc3ccccc3[nH]2)c2cc(C#CCCCCN=C(c3ccccc3)c3ccccc3O)ccc2F)CC1 (stereo not shown) [Example 562, 2-[(6-{3-[(1H-benzimidazol-2-yl)(1-methylpiperidin-4-yloxy)methyl]-4-fluorophenyl]hex-5-ynylimino)phenylmethyl}phenol] | < 0.03 µM |
| COc1cccc(C(OC2CCN(C)CC2)c2nc3ccccc3s2)c1 (stereo not shown) [Example 11, 2-[(3-methoxyphenyl)(1-methylpiperidin-4-yloxy)methyl]benzothiazole] | < 0.03 µM |
| COc1ccc(-c2cccc(C(NC3CCN(C)CC3)c3nc4ccccc4s3)c2)cc1 (stereo not shown) [Example 211, [benzothiazol-2-yl(4′-methoxybiphenyl-3-yl)methyl](1-methylpiperidin-4-yl)amine] | < 0.3 µM |
| CN1CCC(OC(c2cccc(SC(F)(F)F)c2)c2nc3ccccc3[nH]2)CC1 (stereo not shown) [Example 517] | < 0.03 µM |
| COc1ccc(F)c(C(OCC2CCN(C)C2)c2nc3ccccc3[nH]2)c1 (stereo not shown) [Example 504] | < 0.03 µM |
| CN1CCC(OC(c2cccc(OCC=CCN)c2)c2nc3ccccc3s2)CC1 (stereo not shown) [Example 431, 4-{3-[benzothiazol-2-yl(1-methylpiperidin-4-yloxy)methyl]phenoxy}but-2-enylamine] | < 0.03 µM |
| CC(=O)NC(=N)NCCSc1cccc(C(OC2CCN(C)CC2)c2nc3ccccc3[nH]2)c1 (stereo not shown) [Example 401, N-acetyl-N′-(2-{3-[(1H-benzimidazol-2-yl)(1-methylpiperidin-4-yloxy)methyl]phenylsulfanyl}ethyl)guanidine] | < 0.3 µM |
| CCCCOc1cccc(C(OC2CCN(C)CC2)c2nc3ccccc3s2)c1 (stereo not shown) [Example 92, 2-[(3-butoxyphenyl)(1-methylpiperidin-4-yloxy)methyl]benzothiazole] | < 0.3 µM |
| CN1CCC(OC(c2ccc3c(c2)OCO3)c2nc3ccccc3s2)CC1 (stereo not shown) [Example 20, 2-[benzo[1,3]dioxol-5-yl(1-methylpiperidin-4-yloxy)methyl]benzothiazole] | < 0.3 µM |
| CN1CCC(OC(c2cccc(Br)c2)c2nc3cc(F)ccc3[nH]2)CC1 (single isomer, unassigned) [Example 568, 2-[(3-bromophenyl)(1-methylpiperidin-4-yloxy)methyl]-5-fluoro-1H-benzimidazole] | < 0.03 µM |
| CN1CCC(OC(c2cccc(C#CCCCO)c2)c2nc3ccccc3s2)CC1 (stereo not shown) [Example 237, 5-{3-[benzothiazol-2-yl(1-methylpiperidin-4-yloxy)methyl]phenyl}pent-4-yn-1-ol] | < 0.3 µM |
| CN1CCC(OC(c2cccc(OCCNCC(=O)OC(C)(C)C)c2)c2nc3ccccc3s2)CC1 (stereo not shown) [Example 370, (2-{3-[benzothiazol-2-yl(1-methylpiperidin-4-yloxy)methyl]phenoxy}ethylamino)acetic acid tert-butyl ester] | < 1 µM |
| CN1CCC(OC(c2cccc(N3CC(N(C)C)C3)c2)c2nc3ccccc3s2)CC1 (stereo not shown) [Example 450] | < 1 µM |
| CN1CCC(OC(c2cccc(OCCCN3CCN(C(=O)OC(C)(C)C)CC3)c2)c2nc3ccccc3[nH]2)CC1 (stereo not shown) [Example 360, 4-(3-{3-[(1H-benzimidazol-2-yl)(1-methylpiperidin-4-yloxy)methyl]phenoxy}propyl)piperazine-1-carboxylic acid tert-butyl ester] | < 1 µM |
| CN1CCC(OC(c2ccccc2)c2nc3ccccc3s2)C1 (stereo not shown) [Example 2, 2-[(1-methylpyrrolidin-3-yloxy)phenyl-methyl]benzothiazole] | < 1 µM |
| CN1CCC(OC(c2cccc(C#CCCCNC(=N)NC(=O)OC(C)(C)C)c2)c2nc3ccccc3[nH]2)CC1 (stereo not shown) [Example 357, N-tert-butoxycarbonyl-N′-(5-{3-[(1H-benzimidazol-2-yl)(1-methylpiperidin-4-yloxy)methyl]phenyl}pent-4-ynyl)guanidine] | < 0.3 µM |
| CN1CCC(OC(c2cccc(I)c2)c2nc3ccccc3n2C)CC1 (stereo not shown) [Example 472, 2-[(3-iodophenyl)(1-methylpiperidin-4-yloxy)methyl]-1-methyl-1H-benzimidazole] | < 0.3 µM |
| CN1CCC(OC(c2cccc(S(C)(=O)=O)c2)c2nc3ccccc3s2)CC1 (stereo not shown) [Example 203, 2-[(3-methanesulfonylphenyl)(1-methylpiperidin-4-yloxy)methyl]benzothiazole] | < 1 µM |
| CN1CCC(OC(c2cccc(OCCCCCNCCCCN)c2)c2nc3ccccc3[nH]2)CC1 (stereo not shown) [Example 419, N1-(5-{3-[(1H-benzimidazol-2-yl)(1-methylpiperidin-4-yloxy)methyl]phenoxy}pentyl)butane-1,4-diamine] | < 1 µM |
| Cc1ccc2sc(C(OC3CCN(C)CC3)c3ccccc3)nc2c1 (stereo not shown) [Example 29, 5-methyl-2-[(1-methylpiperidin-4-yloxy)phenylmethyl]benzothiazole] | < 1 µM |
| CN1CCC(OC(c2cccc(CCCCCCNC(=N)N)c2)c2nc3ccccc3[nH]2)CC1 (stereo not shown) [Example 355, N-(6-{3-[(1H-benzimidazol-2-yl)(1-methylpiperidin-4-yloxy)methyl]phenyl}hexyl)guanidine] | < 0.3 µM |
| CN1CC(COC(c2cccc(SCCCCN)c2)c2nc3ccccc3[nH]2)C1 (stereo not shown) [Example 507, 4-{3-[(1H-benzimidazol-2-yl)(1-methylazetidin-3-ylmethoxy)methyl]phenylsulfanyl}butylamine] | < 0.03 µM |
| CN1CCC(OC(c2cccc(C#CCCN)c2)c2nc3ccccc3[nH]2)CC1 (stereo not shown) [Example 286, 4-{3-[(1H-benzimidazol-2-yl)(1-methylpiperidin-4-yloxy)methyl]phenyl}but-3-ynylamine] | < 0.3 µM |
| CN1CCC(OC(c2cccc(OCC3CCNCC3)c2)c2nc3ccccc3s2)CC1 (stereo not shown) [Example 377, 2-{(1-methylpiperidin-4-yloxy)[3-(piperidin-4-ylmethoxy)phenyl]methyl}benzothiazole] | < 0.3 µM |
| Cc1cc(C(OC2CCN(C)CC2)c2nc3ccccc3s2)ccc1F (stereo not shown) [Example 34, 2-[(4-fluoro-3-methylphenyl)(1-methylpiperidin-4-yloxy)methyl]benzothiazole] | < 0.3 µM |
| CN1CCC(OC(c2cccc(CCCCCNC(=N)N)c2)c2nc3ccccc3[nH]2)CC1 (stereo not shown) [Example 397, N-(5-{3-[(1H-benzimidazol-2-yl)(1-methylpiperidin-4-yloxy)methyl]phenyl}pentyl)guanidine] | < 0.3 µM |
| CN1CCC(OC(c2cccc(OCC3CCCCC3)c2)c2nc3ccccc3s2)CC1 (stereo not shown) [Example 285, 2-[(3-Cyclohexylmethoxyphenyl)(1-methylpiperidin-4-yloxy)methyl]benzothiazole] | < 1 µM |

System: not given
Test: not given

| SMILES | melting point |
| --- | --- |
| CN1CCC(OC(c2cccc(OCc3cccnc3)c2)c2nc3ccccc3s2)CC1 (stereo not shown) (as salt: oxalate) [Example 284, 2-{(1-methylpiperidin-4-yloxy)[3-(pyridin-3-ylmethoxy)phenyl]methyl}benzothiazole] | 102 °C |
| CN1CCC(OC(c2cccc(OCCN3CCCCC3)c2)c2nc3ccccc3[nH]2)CC1 (stereo not shown) (as salt: oxalate) [Example 356, 2-{(1-methylpiperidin-4-yloxy)[3-(2-piperidin-1-yl-ethoxy)phenyl]methyl}-1H-benzimidazole] | 160 °C |
| CN1CCC(OC(c2cccc(OCCCn3nccn3)c2)c2nc3ccccc3s2)CC1 (stereo not shown) (as salt: oxalate) [Example 349, 2-{(1-methylpiperidin-4-yloxy)[3-(3-[1,2,3]triazol-2-yl-propoxy)phenyl]methyl}benzothiazole] | 74 °C |
| Cc1cccc(C(NC2CCN(C)CC2)c2nc3ccccc3[nH]2)c1 (stereo not shown) (as salt: oxalate) [Example 84, [(1H-benzimidazol-2-yl)(m-tolyl)methyl](1-methylpiperidin-4-yl)amine] | 132 °C |
| CCOCCn1c(C(OC2CCN(C)CC2)c2cccc(C#CCCCCN)c2)nc2ccccc21 (stereo not shown) (as salt: oxalate) [Example 500] | 103 °C |
| CN1CCC(OC(c2cccc(SCCCF)c2)c2nc3ccccc3[nH]2)CC1 (stereo not shown) (as salt: oxalate) [Example 508] | 85 °C |
| Cc1cccc(C(OC2CCN(C)CC2)c2nc3ccccc3s2)c1 (stereo not shown) (as salt: oxalate) [Example 8, 2-[(1-methylpiperidin-4-yloxy)(m-tolyl)methyl]benzothiazole] | 177 °C |
| CN1CCC(OC(c2cccc(OC3CNC3)c2)c2nc3ccccc3s2)CC1 (stereo not shown) (as salt: oxalate) [Example 402, 2-[[3-(azetidin-3-yloxy)phenyl](1-methylpiperidin-4-yloxy)methyl]benzothiazole] | 81 °C |
| CN1CCC(OC(c2ccc3ccccc3c2)c2nc3ccccc3s2)CC1 (stereo not shown) (as salt: hydrochloride) [Example 18, 2-[(1-methylpiperidin-4-yloxy)naphthalen-2-ylmethyl]benzothiazole] | 198 °C |
| CN1CCC(OC(c2cccc(OCCCCCN3CCN(C(=O)OC(C)(C)C)CC3)c2)c2nc3ccccc3[nH]2)CC1 (stereo not shown) (as salt: oxalate) [Example 391, 4-(5-{3-[(1H-benzimidazol-2-yl)(1-methylpiperidin-4-yloxy)methyl]phenoxy}pentyl)piperazine-1-carboxylic acid tert-butyl ester] | 101 °C |
| CN1CCC(OC(c2cccc(C(=O)N(C)Cc3ccccc3)c2)c2nc3ccccc3s2)CC1 (stereo not shown) (as salt: oxalate) [Example 219, 3-[benzothiazol-2-yl(1-methylpiperidin-4-yloxy)methyl]-N-benzyl-N-methylbenzamide] | 103 °C |
